{"source": "patent US8716506B2", "about": "“Xylitol esters and ethers applied as alternative emulsifiers, solvents, co-emulsifiers and preservative systems for pharmaceutical and cosmetic products” (priority 2008, dated 2014)", "origin": "cited, not measured here", "key": {"Streptococcus pneumoniae": {"system": "Streptococcus pneumoniae", "details": "concentration of 5%"}, "Haemophilus influenzae": {"system": "Haemophilus influenzae", "details": "concentration of 5%"}, "S. pneumoniae": {"system": "S. pneumoniae", "details": "concentration of 5%"}}, "data": [{"smiles": "OC[C@@H](O)[C@H](O)[C@@H](O)CO", "note": "[xylitol]", "values": [{"measurement": "growth inhibition", "setting": "Streptococcus pneumoniae", "result": "inhibited the growth"}, {"measurement": "adherence levels in epithelial nasopharyngeal cells", "setting": "Haemophilus influenzae", "result": "reduced the adherence levels"}, {"measurement": "adherence levels in epithelial nasopharyngeal cells", "setting": "S. pneumoniae", "result": "reduced the adherence levels"}]}, {"smiles": "CC1(C)C(=O)N(CO)C(=O)N1CO", "note": "[DMDM hydantoin, 1,3-Dimethylo1-5,5-dimethyl hydantoin]", "values": [{"measurement": "volunteers with hypersensitivity in contact test", "setting": "De Groot and collaborators", "result": 57, "unit": "%"}]}, {"smiles": "C=O", "note": "[formaldehyde, Formaldehyde (methanal)]", "values": [{"measurement": "volunteers with contact hypersensitizing", "setting": "clinical tests, even in concentrations of 30 ppm of free formaldehyde", "result": "1-9%"}]}]}
